# Assay results reported in publication PMC8820799, “Angiogenesis and anti-leukaemia activity of novel indole derivatives as potent colchicine binding site inhibitors” (Journal of Enzyme Inhibition and Medicinal Chemistry, 2022).
# Read-outs that look alike come from different tables or passages of the source.
# What was measured:
# [1] = tested on: leukaemia cell lines; assay: Anti-proliferation against a variety of leukaemia cell lines (CCK-8); format: cell-based; conditions: seven leukaemia cell lines; read-out: IC50 against a variety of leukaemia cell lines (range over panel)
# Experimental: (§1) Cells were seeded in 96-well plates at a density of 8 × 10^3 per well and exposed to different concentrations of compounds for 72 h. Subsequently, 10 µL CCK8 solution was added to each well and co-incubated for another 3–4 h at 37 °C. The absorbance was determined at 450 nm. Data was calculated with GraphPad Prism5 software.[32]
# [2] = tested on: transgenic zebrafish (FLK-1:EGFP); assay: Zebrafish angiogenesis assay (ISVs); format: in vivo; conditions: for IC50: transgenic zebrafish, triplicate, mean ± SD, read-out: Zebrafish (antiangiogenic activity IC50)
# Experimental: The transgenic flk: enhanced GFP zebrafish embryos were generated by pair-wise mating, collected and sorted into the 6-well plate (n = 30 per well) with 1 ml of aquaculture water (0.2 g/L of Instant Ocean Salt in distilled water) and raised at 28 °C. Then the embryos staged at 12 h post fertilisation (hpf) were treated with the indicated concentrations of compounds which were added into embryo water. About 30 embryos were screened for each concentration gradient. At 30hpf, the treated embryos were anaesthetised with 0.02% tricaine in embryo water and photographed. The numbers of ISVs were recorded under confocal microscopy. Results were obtained from three independent determinations and presented as mean ± SD.[38]
# [3] = tested on: THP-1; assay: CCK-8 assay, THP-1; format: cell-based; conditions: Homo sapiens, leukaemia, AML, CCK-8, 72 h
# Experimental: as §1
# [4] = tested on: HUVEC; assay: Wound healing migration assay; format: cell-based, human; conditions: 0.1, 1 and 10 µM
# [5] = tested on: HuT 78; assay: CCK-8 assay, HuT 78; format: cell-based; conditions: Homo sapiens, HuT78; leukaemia, ALL; CCK-8, 72 h
# Experimental: as §1
# [6] = tested on: K562 cells; assay: Immunofluorescence staining of microtubule network; format: cell-based; conditions: K562, 0.1 uM and 0.3 uM; Figure 4F
# [7] = tested on: HUVEC; assay: Toxicity on HUVEC; format: cell-based, human
# [8] = tested on: K562 cells; assay: Western blot of apoptosis-related proteins; format: cell-based; conditions: K562, 48 h
# Experimental: Exponentially growing K562 cells in were seeded in […] at a density of 6х10^5/dish and incubated overnight. The cultured cells were treated with indicated concentrations of 29e for 48 h. After the cells were washed with cold PBS, the supernatant was removed. Cells were scraped off the tissue culture dish, and then lysed by 100 µl ice-cold RIPA lysis buffer for 20 min with occasional agitation. The supernatant was collected by centrifuging at 12,000 g for 10 min at 4 °C. The protein concentration in the supernatant was determined by using a BCA protein assay kit. After BCA analysis to quantify proteins, samples were prepared in SDS-PAGE loading buffer, then boiled for 10 min at 100 °C. Western blot analyses were conducted after separation by SDS-PAGE electrophoresis and transfer to nitrocellulose filter (NC) membranes. Immunoblotting was performed according to the antibody manufacturers’ recommendations. Antibodies: caspase-3, caspase-9, PARP and β-actin.
# [9] = tested on: CCRF-CEM; assay: CCK-8 assay, CCRF-CEM; format: cell-based; conditions: Homo sapiens, leukaemia, ALL, CCK-8, 72 h
# Experimental: as §1
# [10] = tested on: HUVEC; assay: Tube formation assay; format: cell-based, human; conditions: 0.1, 1 and 10 µM
# Experimental: Matrigel matrix (Basement Membrane Matrix, BD Biosciences) was thawed at 4 °C overnight. At this point, 50 µL of the matrix solution was added to each well of a 96-well plate. After gelling at 37 °C for 30 min, the matrix was overlaid with 200 µL of medium containing 1 × 10^5 HUVECs per well, which was incubated for 6 h to allow capillary tubes to form. Different concentrations of compounds were added in the cultures and incubated for 6 h to monitor the morphological changes of cells and tubes. The disappearance of existing vasculature was photographed at 10х magnification. Values were expressed as percent change form control cultures grown with complete medium.[36] Standard dimensional parameters (percent area covered by HUVECs and total length of the HUVEC network per field) were noted, and standard topological parameters (number of meshes and branching points per field) were estimated.
# [11] = tested on: Jurkat; assay: CCK-8 assay, Jurkat; format: cell-based; conditions: Homo sapiens, leukaemia, ALL, CCK-8, 72 h
# Experimental: as §1
# [12] = tested on: MV4-11; assay: CCK-8 assay, MV4-11; format: cell-based; conditions: Homo sapiens, leukaemia, AML, CCK-8, 72 h
# Experimental: as §1
# [13] = tested on: zebrafish embryos; assay: Preliminary cytotoxicity study on zebrafish embryos; conditions: at the concentration of 6 µM
# [14] = as above; conditions: zebrafish, in vivo
# [15] = In vitro metabolic stability, human liver microsomes; format: in vitro ADME; conditions: 0.4 mg/mL protein
# Experimental: The metabolic stability assay was performed by incubating the test compound in mouse or human liver microsomes (XenoTech, lot no. 1510256) at 37 °C and a protein concentration of 0.4 mg/mL. Microsomal incubations were performed at a substrate concentration of 0.5 µM. Data analysis. Species scaling factors were used to convert the in vitro CLint(mL/min/mg) to an in vivo CLint(mL/min/kg).
# [16] = tested on: HUVEC; assay: Transwell cell invasion experiment; format: cell-based, human; conditions: 0.1 µM to 10 µM, concentration-dependent
# Experimental: The upper surface of Transwell membrane was precoated with 40 µL Matrigel gel and incubated for 45 min at 37 °C for gelling. Then, cells were trypsinized and seeded at 6х10^4 per upper chamber, and cultured in 1% foetal bovine serum medium containing different concentrations of compounds. The chamber was then placed in a 24-well plate to which 10% FBS had been added. After 48 h incubation at 37 °C, both chambers were washed with PBS three times, and then fixed with 4% paraformaldehyde for 15 min, followed by staining with crystal violet. The non-invasive cells on the upper surface membrane were wiped with cotton swabs. The image of the cells on the bottom face was recorded and quantified under an inverted microscope. The results were the means calculated from three replicates of each experiment.[37]
# [17] = tested on: K562 cells; assay: Cell apoptosis assay by flow cytometry (Annexin V-PE/PI); format: cell-based; conditions: K562, 48 h; after treatment of 29e (control 5.95%); equals Q2+Q3 at 200 nM
# Experimental: K562 cells at 8х10^4 cells/well were seeded in 12-well cell culture plates overnight and the cultured cells were incubated with a dose range of compounds 29e for 48 h. The treated or untreated cells were washed twice with PBS and stained by Annexin V-PE and PI for 15 min without light exposure according to the manufacturer’s protocol. Apoptosis was quantified using a flow cytometer ((Becton, Dickinson and Company, USA).[32]
structure (smiles),measurement,setting,value
"COc1cc(C(=O)/C=C/c2cn(S(=O)(=O)c3ccccc3)c3ccccc23)cc(OC)c1OC [Compound 29e, (E)-3–(1-(Phenylsulfonyl)-1H-indol-3-yl)-1–(3,4,5-trimethoxyphenyl)prop-2-en-1-one]",IC50,[1],90 to 1220 nM
same,Formation of intersegmental vessels (ISVs) in zebrafish embryos,[2]; 2.0 µM,efficiently blocked the formation of intersegmental vessels
same,Number and length of ISVs in zebrafish embryos,[2]; 6.0 µM,the number and length of ISVs completely decreased
same,IC50,[2]; Danio rerio,3600 nM
same,IC50,[2],3400 ± 300 nM
same,IC50,[3],370 ± 30 nM
same,HUVEC wound closure / migration,[4],markedly decreased the closure of wound scratching
same,IC50,[5],260 ± 110 nM
same,Effect on cellular microtubule network,[6],conspicuous disorder for the microtubule network
same,IC50,"[7]; Homo sapiens, HUVEC",58600 nM
same,toxicity on HUVEC,[7]; at the concentration of 10 µM,did not cause any toxicity on HUVEC
same,"Expression of caspase-3, caspase-9 and PARP",[8],decreased efficiently
same,Expression of cleaved caspase-3 and PARP,[8],up-regulation of cleaved caspase-3 and PARP
same,IC50,[9],840 ± 80 nM
same,HUVEC tubule-like networks,[10],sharply reduced the width and length
same,IC50,[11],1220 ± 120 nM
same,IC50,[12],250 ± 20 nM
same,toxicity on zebrafish embryos,[13],did not cause the toxicity
same,IC50,[14],44600 nM
same,microsomal CLint at 0.5 µM,[15],16 µL/min/mg
same,half-life at 0.5 µM,"[15]; 37 °C, read-out: Degradation half-life Human",35 min
same,HUVEC invasion (Transwell),[16],the number of HUVEC invasion decreased
same,percentage of apoptotic cell,[17],45.81%
